In US9951039B2, “Pyrimidines for treatment of bacterial infections” (The Hong Kong Polytechnic University, priority 2016, dated 2018):
Converted amounts (≈) assume the structure as drawn.

Tests used:
[1] = system: S. aureus ATCC 29247 (ampicillin resistant strain); test: MIC against clinically isolated strain 1; assay type: cell-based; details: Staphylococcus aureus, ATCC29247
Procedure: (§1) Procedure of Antimicrobial susceptibility test: The MIC value of compounds was measured in the antimicrobial susceptibility test using the broth microdilution procedure in accordance with the CLSI guidelines.^21 Cation-adjusted Mueller Hinton broth (CA-MHB) was used for all the S. aureus strains in the assay. Cells in exponential phase of growth were diluted to approximately 5×10^5 cfu/mL. Stock solutions of each compound were freshly dissolved in dimethyl sulfoxide (DMSO). Then, serial dilutions of each compound in CA-MHB medium were added into 96-well microplate. The final percentage of DMSO in the assay was 1%. Control experiments were performed with 1% DMSO instead of the compound solution. After being incubated at 37° C. for 18 h, OD600 value of cells was measured on a microplate reader and the percentage of bacterial cell inhibition with respect to controls was calculated. The MIC value was defined as the lowest compound concentration at which the growth of bacteria was inhibited by ≥90%. Three independent assays were performed for each compound.
(§2) Results: Three compounds, namely 14av_amine16, 14dv_amine16 and 14dv_amine06, were selected to be tested against nine in-house clinically isolated bacterial strains including S. aureus ATCC29247, which is an ampicillin resistant strain, S. aureus ATCC BAA-41, ATCC BAA-1717, ATCC BAA-1720, ATCC 43300 which are methicillin resistant strains and four USA300 strains, (#417, #757, #1799 and #2690), which are the predominant strain type of community-associated MRSA strains in the United States.

[2] = system: S. aureus ATCC BAA-1720 (methicillin resistant); test: MIC against clinically isolated strain 3; assay type: cell-based; details: Staphylococcus aureus, ATCCBAA1720
Procedure: as §1, §2

[3] = system: S. aureus ATCC BAA-41 (methicillin resistant); test: MIC against clinically isolated strain 4; assay type: cell-based; details: Staphylococcus aureus, ATCCBAA41
Procedure: as §1, §2

[4] = system: USA300 #417 (community-associated MRSA); test: MIC against clinically isolated strain 6; assay type: cell-based, S. aureus; details: Staphylococcus aureus
Procedure: as §1, §2

[5] = system: USA300 #757 (community-associated MRSA); test: MIC against clinically isolated strain 7; assay type: cell-based, S. aureus; details: Staphylococcus aureus
Procedure: as §1, §2

S. aureus FtsZ = molecular target: T1, S. aureus FtsZ (Staphylococcus aureus, UniProt P0A031); test: FtsZ polymerization light scattering assay; assay type: biochemical; details: 30 μm of compound; FtsZ 12.5 μM, 1 mM GTP
T1 construct: 6-histidine tag; made in house; host or cells: E. coli BL21(DE3)
T1 sequence (P0A031 1-390): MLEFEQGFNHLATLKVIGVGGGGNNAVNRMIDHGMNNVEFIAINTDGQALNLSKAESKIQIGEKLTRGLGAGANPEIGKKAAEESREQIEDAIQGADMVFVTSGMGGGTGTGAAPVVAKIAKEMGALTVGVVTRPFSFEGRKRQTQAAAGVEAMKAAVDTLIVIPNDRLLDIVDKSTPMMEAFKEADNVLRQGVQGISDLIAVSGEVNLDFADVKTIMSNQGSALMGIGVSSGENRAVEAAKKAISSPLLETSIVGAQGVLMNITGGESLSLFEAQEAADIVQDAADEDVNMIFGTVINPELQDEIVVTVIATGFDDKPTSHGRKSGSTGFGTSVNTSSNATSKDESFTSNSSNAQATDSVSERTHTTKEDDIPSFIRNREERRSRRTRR
Procedure: Procedure for expression and purification of S. aureus FtsZ protein: S. aureus FtsZ protein was prepared as previous reported.^16a In brief, E. coli BL21(DE3) cells, transformed with a pRSET-A-S vector carrying S. aureus FtsZ with a 6-histidine tag attached, were streaked on a nutrient agar plate containing 50 μg/mL ampicillin. After overnight incubation at 37° C., a single colony was inoculated into 5 mL of Luria-Bertani (LB) medium in the presence of 50 μg/mL ampicillin, which was then incubated at 37° C., with shaking at 250 rpm for 16 h. The overnight culture was transferred into a fresh 2×TY medium in a dilution ratio of 1:100 and 50 μg/mL ampicillin was then added, followed by incubation at 37° C. with shaking at 250 rpm. When OD600 reached 0.8, protein expression was induced with 0.4 mM isopropyl-β-D-thiogalactopyranoside (IPTG) for 4 h. […]
Procedure: The polymerization of recombinant S. aureus FtsZ was measured using a 90° light scattering in a thermostatically (37° C.) controlled Fluorescence Spectrometer LS 50B according to previous reports.^16a,19 Both excitation and emission wavelengths were fixed to 600 nm with a slit width of 2.5 nm. […] After 8 min, the final concentration of 1 mM GTP was added at the last fraction and the increase in light scattering measured for an additional 2000 seconds. The rate and extent of polymerization were measured. […]

B. subtilis 168 [6] = test: MIC against B. subtilis 168; assay type: cell-based; details: Bacillus subtilis
B. subtilis 168 [7] = test: Bacterial morphology of B. subtilis 168 (phase-contrast microscopy); assay type: cell-based; details: sub-lethal concentration, 4 h
Procedure: Procedure: The B. subtilis 168 cells were grown in LB medium. The cultures at an A600 of 0.01 from an overnight culture were inoculated in the same medium containing different concentrations of the test compounds and grown at 37° C. for 4 h. The cells for morphology studies were harvested and resuspended in 100 μL of PBS buffer containing 0.25% agarose. 10 μL of the suspension mixture were then placed on a microscopic slide pretreated with 0.1% (w/v) poly-L-lysine and the morphology of the bacterial cells was observed under a phase-contrast optical microscope at 40× magnification. The images were captured using an Olympus Bio Imaging Navigator FSX 100 microscope.

Structure (SMILES): CCC(CC)c1cc(CCN2CCCN(Cc3ccc(C(F)(F)F)cc3)CC2)nc(-c2ccncc2)n1 [Compound 14av_amine16, 1-(2-(6-(pentan-3-yl)-2-(pyridin-4-yl)pyrimidin-4-yl)ethyl)-4-(4-(trifluoromethyl)benzyl)-1,4-diazepane]
- MIC [1]: 8 µM (≈ 4.09 µg/mL)
- MIC [2]: 12 µM (≈ 6.14 µg/mL)
- MIC [3]: 12 µM (≈ 6.14 µg/mL)
- MIC [4]: 12 µM (≈ 6.14 µg/mL)
- MIC [5]: 12 µM (≈ 6.14 µg/mL)
- inhibition of FtsZ polymerization (S. aureus FtsZ): Complete inhibition
- MIC (B. subtilis 168 [6]): 12 µM (≈ 6.14 µg/mL)
- average cell length (B. subtilis 168 [7]): > 20 μm
